Data taken from ChEMBL document CHEMBL4425141, “Design, Synthesis, and Identification of 4″α-Azidoethyl-cyclic ADP-Carbocyclic-ribose as a Highly Potent Analogue of Cyclic ADP-Ribose, a Ca(2+)-Mobilizing Second Messenger” (J Med Chem, 2016).

Key:
[1] = (§1) Induction of calcium mobilization in sea urchin egg by fluorometry; type: functional, Hemicentrotus pulcherrimus
[2] = system: Hemicentrotus pulcherrimus; assay: as §1; type: functional

With `Nc1c2ncn3c2nc[n+]1[C@@H]1C[C@H](COP(=O)([O-])OP(=O)(O)OC[C@H]2O[C@@H]3[C@H](O)[C@@H]2O)[C@@H](O)[C@H]1O` as the molecule, how does the EC50 [1] read?
The EC50 was 54 nM.

With `Nc1c2ncn3c2nc[n+]1[C@@H]1O[C@H](COP(=O)([O-])OP(=O)(O)OC[C@H]2O[C@@H]3[C@H](O)[C@@H]2O)[C@@H](O)[C@H]1O` as the molecule, how does the Activity [2] read?
The Activity was “Dose-dependent effect”.

And the EC50 [1]?
Its EC50 is 213 nM.

For `[N-]=[N+]=NCC[C@]12COP(=O)(O)OP(=O)([O-])OC[C@H]3O[C@H]([C@H](O)[C@@H]3O)n3cnc4c(N)[n+](cnc43)[C@H](C1)[C@H](O)[C@@H]2O`, which EC50 [1] is on record?
Its EC50 is 24 nM.
